From patent publication US9951014B2, “Mammalian and bacterial nitric oxide synthase inhibitors” (Northwestern University, priority 2014, dated 2018)
Like-named read-outs stand apart in the source and are kept apart here.

What was measured:
[1] = target: murine iNOS (Mus musculus (Mouse), UniProt P29477); assay: Oxyhemoglobin NO capture assay with purified NOS; format: biochemical
Procedure: (§1) The oxyhemoglobin NO assays were performed with purified NOSs using a Biotek Gen5™ microplate reader as previously reported. […] For iNOS, calmodulin and CaCl2 were omitted because iNOS is calcium independent. […] The calculated standard deviations of the assays were less than 10% with all NOSs. […] The selectivity of antagonism of nNOS was determined by calculating the ratios of the Ki values with iNOS or eNOS to those with rat nNOS.

[2] = target: rat nNOS (Rattus norvegicus (Rat), UniProt P29476); assay: Oxyhemoglobin NO capture assay with purified NOS; format: biochemical
Procedure: as §1

[3] = target: bsNOS (Bacillus subtilis (strain 168), UniProt O34453); assay: Imidazole displacement, spectral binding constant KS
Chain of bsNOS (O34453 whole entry): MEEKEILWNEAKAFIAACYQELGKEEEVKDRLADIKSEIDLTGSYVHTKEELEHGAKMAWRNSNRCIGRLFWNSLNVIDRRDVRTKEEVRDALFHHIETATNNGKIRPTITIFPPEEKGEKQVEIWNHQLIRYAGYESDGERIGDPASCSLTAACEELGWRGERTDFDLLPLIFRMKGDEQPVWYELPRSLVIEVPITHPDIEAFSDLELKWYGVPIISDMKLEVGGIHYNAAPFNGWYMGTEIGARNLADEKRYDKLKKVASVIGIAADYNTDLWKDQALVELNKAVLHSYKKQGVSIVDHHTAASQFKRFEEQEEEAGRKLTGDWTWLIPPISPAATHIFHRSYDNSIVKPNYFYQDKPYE

[4] = target: bovine eNOS (Bos taurus (Bovine), UniProt P29473); assay: Oxyhemoglobin NO capture assay with purified NOS; format: biochemical
Procedure: as §1

[5] = Plasma pharmacokinetics and brain distribution in mice; format: in vivo, male BALB/c mice; settings: for C0: back extrapolated conc.; for clearance / half-life: 2 mg/kg; for Vd: read-out: Vss
Procedure: Pharmacokinetic study. A group of forty-eight male mice were divided into two groups: Group 1 (2 mg/kg; i.v.) and Group 2 (10 mg/kg; p.o.) with each group comprising twenty-four mice. […] The blood samples were collected from a set of three mice at each time point in labeled micro centrifuge tubes containing K2EDTA as anticoagulant. Plasma samples were separated by centrifugation of whole blood and stored below −70° C. until bioanalysis. […] Tissue samples were homogenized using ice-cold phosphate buffer saline (pH 7.4) and homogenates were stored below −70° C. until analyzed. The total homogenate volume was three times that of the tissue weight. […] Specific LC-MS/MS and MRM conditions are described below. Pharmacokinetic parameters were calculated using the non-compartmental analysis tool of Phoenix WinNonlin (Version 6.3).

[6] = ratio Ki iNOS / Ki rat nNOS, Table 9
[7] = ratio Ki eNOS / Ki rat nNOS, Table 9
[8] = male, BALB/c, mouse, brain, iv, i.v. 2 mg/kg
[9] = male, BALB/c, mouse, iv, i.v. 2 mg/kg, plasma
[10] = male, BALB/c, mouse, plasma, iv, i.v. 2 mg/kg
[11] = male, BALB/c, mouse, po, p.o. 10 mg/kg, plasma

Compound: Cc1cc(N)nc(CCc2cc(C#N)cc(N(C)CCc3cccc(F)c3)c2)c1 [Compound 21d]
- Ki ([1]; Table 9, read-out: Ki iNOS): 45.3 µM
- i/n selectivity [1, 6]: 33.7
- Ki ([2]; Table 9, read-out: Ki Rat nNOS): 1.8 µM

Compound: Cc1cc(N)nc(CCc2cccc(C(O)Cc3cc(C)cc(N)n3)c2)c1 (stereo not shown) [Compound 10]
- Kd ([3]; KS bsNOS, imidazole displacement, Tables 1 and 4): 1.89 µM

Compound: CCN(CCNC)c1cc(F)cc(CCc2cc(C)cc(N)n2)c1 [Compound 23d, N^1-(3-(2-(6-Amino-4-methylpyridin-2-yl)ethyl)-5-fluorophenyl)-N^1-ethyl-N^2-methylethane-1,2-diamine]
- Ki ([4]; Table 9, read-out: Ki eNOS): 4.29 µM
- e/n selectivity [4, 7]: 93.2
- Ki ([1]; Table 9, read-out: Ki iNOS): 5.04 µM
- i/n selectivity [1, 6]: 109.6
- Ki ([2]; Table 9, read-out: Ki Rat nNOS): 0.046 µM

Compound: Cc1cc(N)nc(CCc2cc(C#N)cc(NCCc3cccc(F)c3)c2)c1 [Compound 22, 3-(2-(6-Amino-4-methylpyridin-2-yl)ethyl)-5-((3-fluorophenethyl)amino)benzonitrile]
- Kd ([3]; KS (bsNOS), Table 5): 62 ± 25 µM

Compound: CNCCN(C)c1cc(C#N)cc(CCc2cc(C)cc(N)n2)c1 [Compound 19c, 3-(2-(6-Amino-4-methylpyridin-2-yl)ethyl)-5-(methyl(2-(methylamino)ethyl)amino)benzonitrile]
- AUClast ([5]; i.v. 2 mg/kg, brain): 789.07 ng·h/g
- CL ([5]; i.v. 2 mg/kg, brain): 21.18 mL/min/kg
- C0 ([5]; i.v. 2 mg/kg, brain): 100.28 ng/g
- CL ([5]; i.v. 2 mg/kg, plasma): 184.16 mL/min/kg
- T1/2 ([5]; i.v. 2 mg/kg, plasma): 1.12 h
- clearance [5, 8]: 21 mL/min/kg
- half-life [5, 8]: 24.8 h
- Vd ([5]; male, BALB/c, mouse, iv, i.v. 2 mg/kg, brain): 44 L/kg
- AUC(0-inf) [5, 9]: 181 ng·h/mL
- AUC(0-t) [5, 9]: 180 ng·h/mL
- C0 ([5]; male, BALB/c, mouse, iv, i.v. 2 mg/kg, plasma, read-out: C0): 472 ng/mL
- Vd [5, 9]: 14.8 L/kg
- clearance [5, 10]: 184 mL/min/kg
- half-life [5, 10]: 1.1 h
- Cmax ([5]; male, BALB/c, mouse, po, p.o. 10 mg/kg, brain): 39.3 ng/g
- Tmax ([5]; male, BALB/c, mouse, po, p.o. 10 mg/kg, brain, read-out: Tmax): 4 h
- AUC(0-inf) [5, 11]: 182 ng·h/mL
- AUC(0-t) [5, 11]: 162 ng·h/mL
- Cmax [5, 11]: 50.8 ng/mL
- Tmax ([5]; male, BALB/c, mouse, po, p.o. 10 mg/kg, plasma, read-out: Tmax): 0.25 h
- % F (oral bioavailability) ([5]; p.o. 10 mg/kg vs i.v. 2 mg/kg, AUClast used): 18%
- AUClast ([5]; p.o. 10 mg/kg, brain): 673.67 ng·h/g
- Tmax ([5]; p.o. 10 mg/kg, plasma): 0.25 h
- Ki ([4]; Table 9, read-out: Ki eNOS): 24.9 µM
- Ki ([1]; Table 9, read-out: Ki iNOS): 3.67 µM
- Ki ([2]; Table 9, read-out: Ki Rat nNOS): 0.024 µM

Compound: Nc1ccc2cc(CNCCc3cccc(F)c3)ccc2n1 [Compound 17]
- Kd ([3]; KS (bsNOS), Table 5): 420 ± 130 µM

Compound: Cc1cc(N)nc(-c2ccc(CNCCCc3cccc(Cl)c3)cc2)c1 [Compound 28, 6-(4-(((3-(3-Chlorophenyl)propyl)amino)methyl)phenyl)-4-methylpyridin-2-amine]
- Kd ([3]; KS (bsNOS), Table 5): 3.2 ± 0.1 µM

Compound: Cc1cc(N)nc(CCc2cc(F)cc(N(C)CCNC3CC3)c2)c1 [Compound 23c, N^1-(3-(2-(6-Amino-4-methylpyridin-2-yl)ethyl)-5-fluorophenyl)-N^2-cyclopropyl-N^1-methylethane-1,2-diamine]
- Ki ([4]; Table 9, read-out: Ki eNOS): 6.21 µM
- e/n selectivity [4, 7]: 124.3
- Ki ([1]; Table 9, read-out: Ki iNOS): 10.9 µM
- i/n selectivity [1, 6]: 217.8
- Ki ([2]; Table 9, read-out: Ki Rat nNOS): 0.05 µM

Compound: CCNCCN(C)c1cc(F)cc(CCc2cc(C)cc(N)n2)c1 [Compound 23b, N^1-(3-(2-(6-Amino-4-methylpyridin-2-yl)ethyl)-5-fluorophenyl)-N^2-ethyl-N^1-methylethane-1,2-diamine]
- Ki ([4]; Table 9, read-out: Ki eNOS): 17.9 µM
- e/n selectivity [4, 7]: 558.4
- Ki ([1]; Table 9, read-out: Ki iNOS): 6.38 µM
- i/n selectivity [1, 6]: 199.4
- Ki ([2]; Table 9, read-out: Ki Rat nNOS): 0.032 µM

Compound: Cc1cc(N)nc(CCc2cc(C#N)cc(N(C)CCNC3CC3)c2)c1 [Compound 21c]
- Ki ([4]; Table 9, read-out: Ki eNOS): 31.1 µM
- e/n selectivity [4, 7]: 274.0
- Ki ([1]; Table 9, read-out: Ki iNOS): 28 µM
- i/n selectivity [1, 6]: 246.6
- Ki ([2]; Table 9, read-out: Ki Rat nNOS): 0.114 µM

Compound: Cc1cc(N)nc(CCc2cc(F)cc(NC3CCNCC3)c2)c1 [Compound 23i, 6-(3-Fluoro-5-(piperidin-4-ylamino)phenethyl)-4-methylpyridin-2-amine]
- Ki ([4]; Table 9, read-out: Ki eNOS): 4.89 µM
- e/n selectivity [4, 7]: 40.2
- Ki ([1]; Table 9, read-out: Ki iNOS): 13.5 µM
- i/n selectivity [1, 6]: 110.9
- Ki ([2]; Table 9, read-out: Ki Rat nNOS): 0.121 µM

Compound: CNCCN(C)c1cccc(Cc2cc(C)cc(N)n2)n1 [Compound 31]
- Kd ([3]; KS (bsNOS), Table 5): 94 ± 22 µM

Compound: Cc1cc(N)nc(CCc2cc(F)cc(N3CCNCC3)c2)c1 [Compound 23h, 6-(3-Fluoro-5-(piperazin-1-yl)phenethyl)-4-methylpyridin-2-amine]
- Ki ([4]; Table 9, read-out: Ki eNOS): 4.84 µM
- e/n selectivity [4, 7]: 82.8
- Ki ([1]; Table 9, read-out: Ki iNOS): 3.51 µM
- i/n selectivity [1, 6]: 60.2
- Ki ([2]; Table 9, read-out: Ki Rat nNOS): 0.058 µM

Compound: CCNCCN(C)c1cc(C#N)cc(CCc2cc(C)cc(N)n2)c1 [Compound 21a]
- Ki ([4]; Table 9, read-out: Ki eNOS): 37.6 µM
- e/n selectivity [4, 7]: 583.7
- Ki ([1]; Table 9, read-out: Ki iNOS): 11.5 µM
- i/n selectivity [1, 6]: 178.0
- Ki ([2]; Table 9, read-out: Ki Rat nNOS): 0.064 µM

Compound: CCN(CCc1cccc(F)c1)Cc1cccc(NC(=N)c2cccs2)c1 [Compound 15]
- Kd ([3]; KS (bsNOS), Table 5): 119 ± 25 µM

Compound: Cc1ccnc(CCc2cccc([C@@H](N)Cc3cc(C)cc(N)n3)c2)c1 [Compound 5S, (S)-6-(2-Amino-2-(3-(2-(4-methylpyridin-2-yl)ethyl)phenyl)ethyl)-4-methylpyridin-2-amine]
- Ki ([4]; Table 13, read-out: eNOS Ki): 328 µM
- e/n selectivity ([4]; ratio Ki eNOS / Ki nNOS, Table 13): 363
- Ki ([1]; Table 13, read-out: iNOS Ki): > 100 µM
- i/n selectivity ([1]; ratio Ki iNOS / Ki nNOS, Table 13): >110
- Ki ([2]; Table 13, read-out: nNOS Ki): 0.903 µM

Compound: Cc1cc(N)nc(CCc2cc(F)cc(NCc3cccc(F)c3)c2)c1 [Compound 25, 6-(3-Fluoro-5-((3-fluorobenzyl)amino)phenethyl)-4-methylpyridin-2-amine]
- Kd ([3]; KS (bsNOS), Table 5): 19 ± 5 µM
